Assay results reported in ChEMBL document CHEMBL5724914, “Linking interpersonal differences in gut microbiota composition and drug biotransformation activity” (2024).

Assays:
[1] = human gut metagenome, 24 h, 2 µM
[2] = The drug is tested on Z-017 corresponding to mouse gut metagenome with ENA study accession number: PRJEB37062 and ENA sample accession number: ERS12561816 for biotransformation under anaerobic condition. The drug concentrations were measured over 9 timepoints collected between 0 and 24 hours of incubation by liquid-chromatography-coupled mass spectrometry (LC–MS); conditions: 2 µM
[3] = human gut metagenome, 24 h, 2 µM; remark: listed apart in the source
[4] = human gut metagenome, 24 h, 2 µM; remark: listed apart in the source
[5] = human gut metagenome, 24 h, 2 µM; remark: listed apart in the source
[6] = human gut metagenome, 24 h, 2 µM; remark: listed apart in the source
[7] = human gut metagenome, 24 h, 2 µM; remark: listed apart in the source
[8] = human gut metagenome, 24 h, 2 µM; remark: listed apart in the source
[9] = The drug is tested on WLS-069 corresponding to human gut metagenome with ENA study accession number: PRJEB37062 and ENA sample accession number: ERS12561748 for biotransformation under anaerobic condition. The drug concentrations were measured over 9 timepoints collected between 0 and 24 hours of incubation by liquid-chromatography-coupled mass spectrometry (LC–MS); conditions: 2 µM
[10] = The drug is tested on Z-007 corresponding to rat gut metagenome with ENA study accession number: PRJEB37062 and ENA sample accession number: ERS12561807 for biotransformation under anaerobic condition. The drug concentrations were measured over 9 timepoints collected between 0 and 24 hours of incubation by liquid-chromatography-coupled mass spectrometry (LC–MS); conditions: 2 µM
[11] = The drug is tested on WLS-240 corresponding to human gut metagenome with ENA study accession number: PRJEB37062 and ENA sample accession number: ERS12561773 for biotransformation under anaerobic condition. The drug concentrations were measured over 9 timepoints collected between 0 and 24 hours of incubation by liquid-chromatography-coupled mass spectrometry (LC–MS); conditions: 2 µM
[12] = human gut metagenome, 24 h, 2 µM; remark: listed apart in the source
[13] = The drug is tested on Z-002 corresponding to rabbit gut metagenome with ENA study accession number: PRJEB37062 and ENA sample accession number: ERS12561802 for biotransformation under anaerobic condition. The drug concentrations were measured over 9 timepoints collected between 0 and 24 hours of incubation by liquid-chromatography-coupled mass spectrometry (LC–MS); conditions: 2 µM
[14] = human gut metagenome, 24 h, 2 µM; remark: listed apart in the source
[15] = human gut metagenome, 24 h, 2 µM; remark: listed apart in the source
[16] = The drug is tested on Z-019 corresponding to rat gut metagenome with ENA study accession number: PRJEB37062 and ENA sample accession number: ERS12561818 for biotransformation under anaerobic condition. The drug concentrations were measured over 9 timepoints collected between 0 and 24 hours of incubation by liquid-chromatography-coupled mass spectrometry (LC–MS); conditions: 2 µM
[17] = The drug is tested on WLS-098 corresponding to human gut metagenome with ENA study accession number: PRJEB37062 and ENA sample accession number: ERS12561754 for biotransformation under anaerobic condition. The drug concentrations were measured over 9 timepoints collected between 0 and 24 hours of incubation by liquid-chromatography-coupled mass spectrometry (LC–MS); conditions: 2 µM
[18] = human gut metagenome, 24 h, 2 µM; remark: listed apart in the source
[19] = The drug is tested on Z-003 corresponding to pig gut metagenome with ENA study accession number: PRJEB37062 and ENA sample accession number: ERS12561803 for biotransformation under anaerobic condition. The drug concentrations were measured over 9 timepoints collected between 0 and 24 hours of incubation by liquid-chromatography-coupled mass spectrometry (LC–MS); conditions: 2 µM
[20] = The drug is tested on WLS-073 corresponding to human gut metagenome with ENA study accession number: PRJEB37062 and ENA sample accession number: ERS12561749 for biotransformation under anaerobic condition. The drug concentrations were measured over 9 timepoints collected between 0 and 24 hours of incubation by liquid-chromatography-coupled mass spectrometry (LC–MS); conditions: 2 µM
Further: call rule not given here.

Structure (SMILES)	Bacterial Biotransformation [1]	Bacterial Biotransformation [2]	Bacterial Biotransformation [3]	Bacterial Biotransformation [4]	Bacterial Biotransformation [5]	Bacterial Biotransformation [6]	Bacterial Biotransformation [7]	Bacterial Biotransformation [8]	Bacterial Biotransformation [9]	Bacterial Biotransformation [10]	Bacterial Biotransformation [11]	Bacterial Biotransformation [12]	Bacterial Biotransformation [13]	Bacterial Biotransformation [14]	Bacterial Biotransformation [15]	Bacterial Biotransformation [16]	Bacterial Biotransformation [17]	Bacterial Biotransformation [18]	Bacterial Biotransformation [19]	Bacterial Biotransformation [20]
CCN(CC)CCNC(=O)c1cc(S(C)(=O)=O)ccc1OC [TIAPRIDE]	Compound metabolized	Compound NOT metabolized	Compound metabolized	Compound metabolized	Compound metabolized	Compound metabolized	Compound NOT metabolized	Compound metabolized	Compound NOT metabolized	Compound NOT metabolized	Compound metabolized	Compound NOT metabolized	Compound metabolized	Compound metabolized	Compound metabolized	Compound NOT metabolized	Compound metabolized	Compound NOT metabolized	Compound metabolized	Compound NOT metabolized
COc1cc(NC(C)CCCN)c2ncccc2c1.O=P(O)(O)O.O=P(O)(O)O (stereo not given) [PRIMAQUINE PHOSPHATE]	Compound NOT metabolized	Compound NOT metabolized	Compound NOT metabolized	Compound NOT metabolized	Compound NOT metabolized	Compound NOT metabolized	Compound NOT metabolized	Compound metabolized	Compound metabolized	Compound NOT metabolized	Compound metabolized	Compound NOT metabolized	Compound NOT metabolized	Compound metabolized	Compound metabolized	Compound NOT metabolized	Compound metabolized	Compound NOT metabolized	Compound NOT metabolized	Compound NOT metabolized
CC(NC(C)(C)C)C(=O)c1cccc(Cl)c1 (stereo not given) [BUPROPION]	Compound NOT metabolized	Compound NOT metabolized	Compound metabolized	Compound NOT metabolized	Compound NOT metabolized	Compound NOT metabolized	Compound NOT metabolized	Compound NOT metabolized	Compound NOT metabolized	Compound NOT metabolized	Compound NOT metabolized	Compound metabolized	Compound NOT metabolized	Compound NOT metabolized	Compound NOT metabolized	Compound NOT metabolized	Compound NOT metabolized	Compound NOT metabolized	Compound NOT metabolized	Compound NOT metabolized
C[N+]12CCC(CC1)C(OC(=O)C(O)(c1ccccc1)c1ccccc1)C2.[Br-] (stereo not given) [CLIDINIUM BROMIDE]	Compound metabolized	Compound NOT metabolized	Compound NOT metabolized	Compound metabolized	Compound metabolized	Compound metabolized	Compound NOT metabolized	Compound metabolized	Compound NOT metabolized	Compound NOT metabolized	Compound metabolized	Compound NOT metabolized	Compound NOT metabolized	Compound NOT metabolized	Compound metabolized	Compound NOT metabolized	Compound NOT metabolized	Compound NOT metabolized	Compound metabolized	Compound NOT metabolized
CCCN1C[C@H](CSC)C[C@@H]2c3cccc4[nH]cc(c34)C[C@H]21.CS(=O)(=O)O [PERGOLIDE MESYLATE]	Compound NOT metabolized	Compound NOT metabolized	Compound NOT metabolized	Compound NOT metabolized	Compound NOT metabolized	Compound NOT metabolized	Compound NOT metabolized	Compound NOT metabolized	Compound NOT metabolized	Compound NOT metabolized	Compound NOT metabolized	Compound NOT metabolized	Compound NOT metabolized	Compound NOT metabolized	Compound NOT metabolized	Compound NOT metabolized	Compound NOT metabolized	Compound NOT metabolized	Compound NOT metabolized	Compound NOT metabolized
O=C1C(CC[S+]([O-])c2ccccc2)C(=O)N(c2ccccc2)N1c1ccccc1 (stereo not given) [SULFINPYRAZONE]	Compound metabolized	Compound NOT metabolized	Compound metabolized	Compound metabolized	Compound metabolized	Compound metabolized	Compound metabolized	Compound metabolized	Compound metabolized	Compound NOT metabolized	Compound metabolized	Compound metabolized	Compound metabolized	Compound metabolized	Compound metabolized	Compound NOT metabolized	Compound metabolized	Compound metabolized	Compound metabolized	Compound metabolized
